Results: patent publication US6350749B1, “Aminoguanidine hydrazone derivatives, process for producing the same and drugs thereof” (Takeda Chemical Industries, Ltd., priority 1998, dated 2002)
Where a name gives a salt, the structure may show the parent alone. Read-outs that look alike come from different tables or passages of the source.

Columns and labels:
Na—H exchange = biological target: T1, Na—H exchange (Rattus norvegicus, UniProt P26431); assay: Rat platelet swelling in sodium propionate solution (light transmittance of PRP), inhibition of Na—H exchange; assay type: cell-based; details: for inhibition at 0.1 µM: 1 min, read-out: Inhibition Rate (%) [10^−7 M]
T1 construct: The blood was centrifuged at 3000 rpm for 5 seconds to obtain platelet rich plasma (PRP); from tissue; host or cells: platelets in platelet rich plasma from abdominal aortic blood of male Wistar rats
Description: Male Wistar rats (350-450 g) were anesthetized with sodium pentobarbital (50 mg/kg, i.p.). Using a disposable syringe pre-filled with 1.5 ml of 3.8% citric acid solution, 8.5 ml of blood was collected from the abdominal aorta. The blood was centrifuged at 3000 rpm for 5 seconds to obtain platelet rich plasma (PRP). The number of platelets in the PRP was counted by an automatic hemocytometer (Sysmex 2500, TOA Medical Electronics). The PRP was diluted with physiological saline to make the concentration of 40×10^4 platelets per 1 μl. A platelet aggregometer (Hematoracer, Niko Bioscience) was used for measurement of the platelet swelling. 200 μl of the PRP was poured into a cuvette and 600 μl of sodium propionate solution (Na propionate 135, glucose 10, Hepes 20, CaCl2 1, MgCl2 1; Units: mM; pH6.7) was added while stirring at 37° C. The change in the light transmittance of PRP which was an indicator of the platelet swelling was recorded on a plotter. The test compound was added 3 minutes before addition of the sodium propionate solution. The test compounds were dissolved in dimethylsulfoxide (DMSO).

[1] = test compound 10^−7 M, rat platelet rich plasma, value 1 minute after sodium propionate solution, 100% = difference between 1% DMSO and HOE-642 (10^−5M)

T1 sequence (P26431 whole entry): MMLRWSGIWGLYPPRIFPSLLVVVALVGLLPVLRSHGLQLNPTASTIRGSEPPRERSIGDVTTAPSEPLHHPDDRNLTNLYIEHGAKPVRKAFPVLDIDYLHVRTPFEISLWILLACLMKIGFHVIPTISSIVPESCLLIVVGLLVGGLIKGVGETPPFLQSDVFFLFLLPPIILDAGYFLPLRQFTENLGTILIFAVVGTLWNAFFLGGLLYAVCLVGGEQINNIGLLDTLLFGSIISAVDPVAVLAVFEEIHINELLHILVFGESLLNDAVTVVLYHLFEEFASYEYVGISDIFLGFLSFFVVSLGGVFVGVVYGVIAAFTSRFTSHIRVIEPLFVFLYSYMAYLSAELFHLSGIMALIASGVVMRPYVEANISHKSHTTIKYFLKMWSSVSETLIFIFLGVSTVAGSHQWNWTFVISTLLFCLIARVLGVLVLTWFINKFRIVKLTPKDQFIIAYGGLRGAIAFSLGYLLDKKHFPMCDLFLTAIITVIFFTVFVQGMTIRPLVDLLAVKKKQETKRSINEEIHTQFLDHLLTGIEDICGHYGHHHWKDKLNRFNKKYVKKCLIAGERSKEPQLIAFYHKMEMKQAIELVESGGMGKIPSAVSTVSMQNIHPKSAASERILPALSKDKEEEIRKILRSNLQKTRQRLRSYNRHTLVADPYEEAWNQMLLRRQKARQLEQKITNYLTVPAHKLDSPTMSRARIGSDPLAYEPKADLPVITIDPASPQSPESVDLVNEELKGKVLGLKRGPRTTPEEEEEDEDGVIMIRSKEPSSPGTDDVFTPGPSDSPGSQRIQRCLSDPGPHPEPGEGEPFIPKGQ

melting point | SMILES | also measured
225 °C (dec.) | Cc1ccnc2c1C(=NNC(=N)N)CC(c1cccs1)C2.Cl (stereo not shown) [Compound 70, 5-guanidinoimino-4-methyl-7-(2-thienyl)-5,6,7,8-tetrahydroquinoline hydrochloride] | inhibition at 0.1 µM (Na—H exchange; [1]): 81%
190 to 192 °C (dec.) | Cc1n[nH]c2c1C(=NNC(=N)NO)CC(c1cc(Cl)sc1Cl)C2.Cl (stereo not shown) [Compound 128, 6-(2,5-dichlorothiophen-3-yl)-4-(1-hydroxyguanidin-3-yl)imino-3-methyl-4,5,6,7-tetrahydroindazole hydrochloride] | inhibition at 0.1 µM (Na—H exchange; [1]): 78%
– | Cc1ccnc2c1C(=NNC(=N)N)CC(c1ccccc1F)C2 (stereo not shown) [Compound 59, 7-(2-fluorophenyl)-5-guanidinoimino-4-methyl-5,6,7,8-tetrahydroquinoline hydrochloride] | inhibition at 0.1 µM (Na—H exchange; [1]): 72%
234 to 235 °C (dec.) | Cc1n[nH]c2c1C(=NNC(=N)NO)CC(c1ccccc1Cl)C2.Cl (stereo not shown) [Compound 93, 6-(2-chlorophenyl)-4-(1-hydroxyguanidin-3-yl)imino-3-methyl-4,5,6,7-tetrahydroindazole hydrochloride] | inhibition at 0.1 µM (Na—H exchange; [1]): 69%
241 to 243 °C | Cc1cnnc2c1C(=NNC(=N)N)CC(c1ccccc1Cl)C2.Cl (stereo not shown) [Compound 129, 7-(2-chlorophenyl)-5-guanidinoimino-4-methyl-5,6,7,8-tetrahydrocinnoline hydrochloride] | inhibition at 0.1 µM (Na—H exchange; [1]): 80%
161 °C (dec.) | Cc1ccnc2c1C(=NNC(=N)N)CC(c1ccccc1O)C2.Cl (stereo not shown) [Compound 68, 5-guanidinoimino-7-(2-hydroxyphenyl)-4-methyl-5,6,7,8-tetrahydroquinoline hydrochloride] | inhibition at 0.1 µM (Na—H exchange; [1]): 70%
≥ 300 °C | Cc1cnnc2c1C(=NNC(=N)N)CC(c1cc(Cl)sc1Cl)C2.Cl (stereo not shown) [Compound 131, 7-(2,5-dichlorothiophen-3-yl)-5-guanidinoimino-4-methyl-5,6,7,8-tetrahydrocinnoline hydrochloride] | inhibition at 0.1 µM (Na—H exchange; [1]): 88%
204 °C (dec.) | Cc1ccnc2c1C(=NNC(=N)N)CC(c1ccccc1Cl)C2.Cl (stereo not shown) [Compound 61, 7-(2-chlorophenyl)-5-guanidinoimino-4-methyl-5,6,7,8-tetrahydroquinoline hydrochloride] | Inhibition Rate (%) [10^−7 M] (Na—H exchange; [1]): 78%
244 to 245 °C (dec.) | CCc1cnnc2c1C(=NNC(=N)N)CC(c1ccccc1Cl)C2.CS(=O)(=O)O (stereo not shown) [Compound 133, 7-(2-chlorophenyl)-5-guanidinoimino-4-ethyl-5,6,7,8-tetrahydrocinnoline methanesulfonate] | inhibition at 0.1 µM (Na—H exchange; [1]): 87%
– | Cc1ccnc2c1C(=NNC(=N)N)CC(c1cc(Cl)sc1Cl)C2 (single isomer, unassigned; (-)) [Compound 109, (−)-7-(2,5-dichlorothiophen-3-yl)-5-guanidinoimino-4-methyl-5,6,7,8-tetrahydroquinoline hydrochloride] | inhibition at 0.1 µM (Na—H exchange): 91%
285 °C (dec.) | Cc1coc2c1C(=NNC(=N)N)CC(c1cccs1)C2.Cl (stereo not shown) [Compound 48, 4-guanidinoimino-3-methyl-6-(2-thienyl)-4,5,6,7-tetrahydrobenzofuran hydrochloride] | inhibition at 0.1 µM (Na—H exchange; [1]): 70%
196 to 200 °C | CCc1n[nH]c2c1C(=NNC(=N)N)CC(c1ccccc1Cl)C2.Cl (stereo not shown) [Compound 27, 6-(2-chlorophenyl)-3-ethyl-4-guanidinoimino-4,5,6,7-tetrahydroindazole hydrochloride] | inhibition at 0.1 µM (Na—H exchange; [1]): 76%
– | CCc1cnnc2c1C(=NNC(=N)N)CC(c1cc(Cl)sc1Cl)C2 (stereo not shown) [Compound 134, 7-(2,5-dichlorothiophen-3-yl)-4-ethyl-5-guanidinoimino-5,6,7,8-tetrahydrocinnoline methanesulfonate] | inhibition at 0.1 µM (Na—H exchange; [1]): 83%
210 to 212 °C (dec.) | Cc1ccc(C2CC(=NNC(=N)NO)c3c(C)ccnc3C2)s1.Cl (stereo not shown) | –
≥ 300 °C | Cc1coc2c1/C(=N/NC(=N)N)CC(c1ccco1)C2.Cl (stereo not shown) | –
196 to 198 °C (dec.) | Cc1ccnc2c1C(=NNC(=N)NO)CC(c1cccc(Cl)c1Cl)C2.Cl (stereo not shown) | –
283 °C (dec.) | Cl.N=C(N)N/N=C1\CC(c2ccc(F)cc2)Cc2occ(C(F)(F)F)c21 (stereo not shown) | –
232 °C (dec.) | Cc1cc(C)c2c(n1)CC(c1ccccc1F)CC2=NNC(=N)N.Cl (stereo not shown) | –
201 °C (dec.) | Cc1cc(C)c2c(n1)CC(c1ccccn1)CC2=NNC(=N)N.Cl (stereo not shown) | –
240 °C (dec.) | Cc1ccc(F)cc1C1CC(=NNC(=N)N)c2c(C)cnnc2C1.Cl (stereo not shown) | –
185 °C (dec.) | Cc1c2c(nn1CCc1ccccc1)CC(c1ccccc1Cl)CC2=NNC(=N)N.Cl (stereo not shown) | –
256 to 258 °C | Cc1cnnc2c1C(=NNC(=N)N)CC(c1cc(Cl)ccc1Cl)C2.Cl (stereo not shown) | –
151 to 153 °C | Cc1nn(Cc2ccccc2)c2c1C(=NNC(=N)N)CC(c1ccccc1Cl)C2.Cl (stereo not shown) | –
– | Cc1n[nH]c2c1C(=NNC(=N)N)CC(c1ccccc1Cl)C2 (stereo not shown) [Compound 21, 4-guanidinoimino-6-(2-chlorophenyl)-3-methyl-4,5,6,7-tetrahydroindazole hydrochloride] | inhibition at 0.1 µM (Na—H exchange; [1]): 72%
240 °C (dec.) | CNC(=N)NN=C1CC(c2ccccc2Cl)Cc2[nH]nc(C)c21.Cl (stereo not shown) | –
210 to 212 °C | COCc1n[nH]c2c1C(=NNC(=N)N)CC(c1ccccc1Cl)C2.Cl (stereo not shown) | –
260 to 262 °C | Cc1ccc(C)c(C2CC(=NNC(=N)N)c3c(C)ccnc3C2)c1.Cl (stereo not shown) | –
155 °C (dec.) | CCCn1ccc2c1CC(c1ccccc1)CC2=NNC(=N)N.Cl (stereo not shown) | –

melting point | SMILES | also measured
202 °C (dec.) | COc1ccccc1C1CC(=NNC(=N)N)c2c(C)n[nH]c2C1.Cl (stereo not shown) | –
202 °C (dec.) | Cc1ccnc2c1C(=NNC(=N)N)CC(c1cc(Cl)ccc1O)C2.Cl (stereo not shown) | –
282 °C (dec.) | Cl.N=C(N)N/N=C1\CC(c2ccco2)Cc2occ(C(F)(F)F)c21 (stereo not shown) | –
265 to 266 °C (dec.) | N=C(N)NN=C1CC(c2cc(Cl)sc2Cl)Cc2nncc(C(F)(F)F)c21 (stereo not shown) [Compound 135, 7-(2,5-dichlorothiophen-3-yl)-5-guanidinoimino-4-trifluoromethyl-5,6,7,8-tetrahydrocinnoline] | –
284 °C (dec.) | Cc1ncnc2c1/C(=N/NC(=N)N)CC(c1ccccc1Cl)C2.Cl (stereo not shown) | –
218 °C (dec.) | Cc1ccccc1C1CC(=NNC(=N)N)c2c(C)ccnc2C1.Cl (stereo not shown) | –
240 to 242 °C | Cc1ccc(Cl)c(C2CC(=NNC(=N)N)c3c(C)cnnc3C2)c1.Cl (stereo not shown) | –
176 to 178 °C | Cc1cnnc2c1C(=NNC(=N)NO)CC(c1cc(Cl)sc1Cl)C2.Cl (stereo not shown) | –
208 to 210 °C | Cl.N=C(N)NN=C1CC(c2ccccc2Cl)Cc2[nH]nc(Nc3ccccc3)c21 (stereo not shown) | –
197 to 198 °C | Cc1ccnc2c1C(=NNC(=N)NO)CC(c1ccsc1Br)C2.Cl (stereo not shown) | –
297 °C (dec.) | Cc1cn(S(C)(=O)=O)c2c1C(=NNC(=N)N)CC(c1cccs1)C2.Cl (stereo not shown) | –
≥ 300 °C | Cc1cc[n+]([O-])c2c1C(=NNC(=N)N)CC(c1cc(Cl)sc1Cl)C2.Cl (stereo not shown) | –
182 °C (dec.) | COc1ccc(C2CC(=NNC(=N)N)c3c(C)coc3C2)cc1.Cl (stereo not shown) | –
283 to 284 °C | Cc1cn[n+]([O-])c2c1C(=NNC(=N)N)CC(c1ccccc1Cl)C2.Cl (stereo not shown) | –
277 °C (dec.) | CCOC(=O)c1coc2c1/C(=N/NC(=N)N)CC(c1ccccc1Cl)C2.Cl (stereo not shown) | –
271 to 273 °C | Cc1ccc(C2CC(=NNC(=N)N)c3c(C)ccnc3C2)s1.Cl (stereo not shown) | –
201 to 202 °C (dec.) | Cc1ccnc2c1C(=NNC(=N)NO)CC(c1ccsc1)C2.Cl (stereo not shown) | –
≥ 300 °C | Cc1ccc2c(n1)CC(c1ccccc1)CC2=NNC(=N)N.Cl (stereo not shown) | –
196 to 198 °C (dec.) | Cc1ccnc2c1C(=NNC(=N)NO)CC(c1ccco1)C2.Cl (stereo not shown) | –
192 °C (dec.) | COc1ccccc1C1CC(=NNC(=N)N)c2c(C)ccnc2C1.Cl (stereo not shown) | –
250 °C (dec.) | Cc1coc2c1C(=NNC(=N)N)CC(c1ccccc1)C2.Cl (stereo not shown) | –
270 °C (dec.) | Cc1cc(C)c2c(n1)CC(c1ccccc1)CC2=NNC(=N)N.Cl (stereo not shown) | –
– | CCOc1ccnc2c1C(=NNC(=N)N)CC(c1ccccc1Cl)C2 (stereo not shown) [Compound 80, 7-(2-chlorophenyl)-4-ethoxy-5-guanidinoimino-5,6,7,8-tetrahydroquinoline hydrochloride] | inhibition at 0.1 µM (Na—H exchange; [1]): 75%
281 to 283 °C (dec.) | Cc1ccnc2c1C(=NNC(=N)N)CC(c1ccsc1Cl)C2.Cl (stereo not shown) | –
158 to 160 °C | CCc1c[nH]c2c1C(=NNC(=N)N)CC(c1ccccc1)C2.Cl (stereo not shown) | –
215 to 220 °C | Cc1ccc(Cl)cc1C1CC(=NNC(=N)N)c2c(C)ccnc2C1.Cl (stereo not shown) | –
230 to 235 °C | Cc1ccc(F)c(C2CC(=NNC(=N)N)c3c(C)ccnc3C2)c1.Cl (stereo not shown) | –

SMILES | melting point | also measured
CS(=O)(=O)O.Cc1ccnc2c1C(=NNC(=N)N)CC(c1cc(Cl)sc1Cl)C2 (single isomer, unassigned; (-)) [Compound 113, (−)-7-(2,5-dichlorothiophen-3-yl)-5-guanidinoimino-4-methyl-5,6,7,8-tetrahydroquinoline methanesulfonate] | 229 to 231 °C | inhibition at 0.1 µM (Na—H exchange; [1]): 100%
